15 molecules from patent US20250002464A1, “NOVEL COMPOUND AND PHARMACEUTICAL COMPOSITION COMPRISING SAME” (SAPIENSBIO INC., priority 2021, published 2025) can be followed below.

The test system of this test is α-SMA. As to the kind of experiment: α-SMA expression inhibitory ability in MRC5 cell line (Western blotting). Particulars: TGF-β1 (10 ng/mL), 72 hours, relative to TGF-β1 only. In kind it is cell-based. As to the method:
Subsequently, the inhibitory effect on pulmonary fibrosis of the compounds according to the present invention was overall evaluated. An MRC5 cell line was treated with each compound at 10 μM, and 2 hours later, treated with TGF-β1 (10 ng/mL). After 72 hours, the cells were lysed using RIPA Buffer, and then an α-SMA protein level was measured through Western blotting. The α-SMA expression level when treating the cells with each compound and TGF-β1 compared to the α-SMA expression level when treating the cells only with TGF-β1 without the compound was calculated as the α-SMA expression inhibitory ability of the corresponding compound. The α-SMA expression inhibitory ability of each compound is summarized in Table 2 below (A: inhibitory ability≥70%, B: 50%: inhibitory ability<70%, C: inhibitory ability<50%).
(In general: A western blot detects proteins with antibodies after separation by electrophoresis.)
For the molecule `O=C(CCN1CCN2CCCC2C1)N1CCN(c2ccc(F)cc2)c2ccccc21` (stereo not drawn) [Compound 20, 1-(4-(4-fluorophenyl)-3,4-dihydroquinoxaline-1(2H)-yl)-3-(hexahydropyrrolo[1,2-a]pyrazin-2(1H)-yl)propan-1-one], the inhibition – broadly, the drop in the measured response relative to a control, in per cent – at 10 µM was 50 to 70%.

Molecule `CC1CCCN1CCC(=O)N1CCN(c2ccc(F)cc2)c2cc(F)ccc21` (stereo in doubt) [Compound 40, (R)-1-(6-fluoro-4-(4-fluorophenyl)-3,4-dihydroquinoxaline-1(2H)-yl)-3-(2-methylpyrrolidin-1-yl)propan-1-one] returned an inhibition at 10 µM of less than 50%. The value for `CC(C)N1CCN(C(=O)CCN2CCCCC2)c2ccccc21` [Compound 178, 1-(4-isopropyl-3,4-dihydroquinoxaline-1(2H)-yl)-3-(piperidin-1-yl)propan-1-one] was less than 50%; that for `O=C(CN1CCCC1)N1CCN(Cc2cccc(Cl)c2)c2ccccc21` [Compound 102, 1-(4-(3-chlorobenzyl)-3,4-dihydroquinoxaline-1(2H)-yl)-2-(pyrrolidin-1-yl)ethan-1-one] was less than 50%; that for `CC(C(=O)N1CCN(c2ccc(F)cc2)c2cc(F)ccc21)N1CCCC[C@H]1C` (stereo partly drawn) [Compound 49, 1-(6-fluoro-4-(4-fluorophenyl)-3,4-dihydroquinoxaline-1(2H)-yl)-2-((R)-2-methylpiperidin-1-yl)propan-1-one] was less than 50%. Molecule `O=C(CCN1CCCC1)N1CCN(C(=O)c2ccccc2)c2ccccc21` [Compound 196, 1-(4-benzoyl-3,4-dihydroquinoxaline-1(2H)-yl)-3-(pyrrolidin-1-yl)propan-1-one] came in with an inhibition at 10 µM of less than 50%.

`O=C(CCN1CCOCC1)N1CCN(c2ccccc2)c2cc(F)ccc21` [Compound 2, 1-(6-fluoro-4-phenyl-3,4-dihydroquinoxaline-1(2H)-yl)-3-morpholinopropan-1-one] displayed an inhibition at 10 µM of less than 50%. The value for `O=C(CCN1CCCC1)N1CCN(c2cccc(Cl)c2)c2ccccc21` [Compound 134, 1-(4-(3-chlorophenyl)-3,4-dihydroquinoxaline-1(2H)-yl)-3-(pyrrolidin-1-yl)propan-1-one] was not below 70%; that for `CC(C)CN1CCN(C(=O)C(C)N2CCCCC2)c2ccccc21` (stereo not drawn) [Compound 172, 1-(4-isobutyl-3,4-dihydroquinoxaline-1(2H)-yl)-2-(piperidin-1-yl)propan-1-one] was less than 50%. The value for `O=C(CCc1cnc[nH]1)N1CCN(c2ccc(F)cc2)c2cc(F)ccc21` [Compound 46, 1-(6-fluoro-4-(4-fluorophenyl)-3,4-dihydroquinoxaline-1(2H)-yl)-3-(1H-imidazol-5-yl)propan-1-one] was not below 70%. The value for `CC(C)N1CCN(C(=O)CCN2CCN(C)CC2)c2ccccc21` [Compound 179, 1-(4-isopropyl-3,4-dihydroquinoxaline-1(2H)-yl)-3-(4-methylpiperazin-1-yl)propan-1-one] was less than 50%; that for `CC(C(=O)N1CCN(C(=O)c2ccccc2)c2ccccc21)N1CCN(C)CC1` (stereo not drawn) [Compound 201, 1-(4-benzoyl-3,4-dihydroquinoxaline-1(2H)-yl)-2-(4-methylpiperazin-1-yl)propan-1-one] was less than 50%; that for `CC(C(=O)N1CCN(Cc2cccc(Cl)c2)c2ccccc21)N1CCCCC1` (stereo not drawn) [Compound 100, 1-(4-(3-chlorobenzyl)-3,4-dihydroquinoxaline-1(2H)-yl)-2-(piperidin-1-yl)propan-1-one] was not below 70%. `O=C(CN1CCCC1)N1CCN(c2ccccc2Cl)c2ccccc21` [Compound 131, 1-(4-(2-chlorophenyl)-3,4-dihydroquinoxaline-1(2H)-yl)-2-(pyrrolidin-1-yl)ethan-1-one] yielded an inhibition at 10 µM of 50 to 70%. The value for `O=C(CCN1CCCCC1)N1CCN(c2ccc(F)cc2)c2ccccc21` [Compound 16, 1-(4-(4-fluorophenyl)-3,4-dihydroquinoxaline-1(2H)-yl)-3-(piperidin-1-yl)propan-1-one] was not below 70%.
